Results: ChEMBL document CHEMBL5674860, “Optimized Dual-Glo Assay to identify co-culture-induced drug vulnerabilities in 3D CRC models” (2024)

Tests used:
Type in all cases: functional, Homo sapiens
Parameters in all cases: dose or concentration left out as unconfirmed
[1] = tested on: Colon cancer organoid; assay: Optimized Dual-Glo assay to identify co-culture induced drug vulnerabilities using donated chemical probes and chemogenomics kinase set in O14 CRC organoid and F14 CAF mono and co-culture. […] Cell viability is reported both mono and co-culture models.
[2] = tested on: Colon cancer organoid; assay: Optimized Dual-Glo assay to identify co-culture induced drug vulnerabilities using donated chemical probes and chemogenomics kinase set in O20 CRC organoid and F20 CAF mono and co-culture. […] Cell viability is reported both mono and co-culture models.
[3] = tested on: Colon cancer organoid; assay: Optimized Dual-Glo assay to identify co-culture induced drug vulnerabilities using donated chemical probes and chemogenomics kinase set in O06 CRC organoid and F06 CAF mono and co-culture. […] Cell viability is reported both mono and co-culture models.
[4] = Culture type Co-Culture, Transduced with Lucferase2-P2A-EGFP lentivirus
[5] = Culture type Co-Culture, Transduced with Renilla-dsRed lentivirus
[6] = Culture type Mono-Culture, Transduced with Lucferase2-P2A-EGFP lentivirus
[7] = Culture type Mono-Culture, Transduced with Renilla-dsRed lentivirus

SMILES | Cell Viability [1, 4] [%] | Cell Viability [1, 5] [%] | Cell Viability [1, 6] [%] | Cell Viability [1, 7] [%] | Cell Viability [2, 4] [%] | Cell Viability [2, 5] [%] | Cell Viability [2, 6] [%] | Cell Viability [2, 7] [%] | Cell Viability [3, 4] [%] | Cell Viability [3, 5] [%] | Cell Viability [3, 6] [%] | Cell Viability [3, 7] [%]
O=C(NOC[C@H](O)CO)c1ccc(F)c(F)c1Nc1ccc(I)cc1F [MIRDAMETINIB] | 4.141 | 39.571 | 2.016 | 25.7095 | 3.888 | 83.5811 | 5.164 | 45.8585 | 8.8965 | 49.9042 | 7.213 | 36.7215
Cc1cn(-c2cc(NC(=O)c3ccc4c(c3)CN(c3cncnc3)C[C@@H]4C)cc(C(F)(F)F)c2)cn1 | 105.46 | 96.2213 | 134.218 | 97.9875 | 88.3808 | 107.854 | 86.0975 | 111.829 | 85.5561 | 98.7805 | 59.4105 | 105.628
C[C@@H]1CCc2ncc(F)cc2[C@H]2CCCN2c2ccn3ncc(c3n2)C(=O)N1 [SELITRECTINIB] | 80.4223 | 107.034 | 125.619 | 100.351 | 166.265 | 73.3915 | 102.231 | 92.0834 | 101.733 | 118.761 | 174.799 | 120.583
CO[C@H]1CC[C@H](CNc2ccc(S(=O)(=O)NC(=O)c3ccc(N4CCN(CC5=C(c6ccc(Cl)cc6)CC(C)(C)CC5)CC4)cc3Oc3cnc4[nH]ccc4c3)cc2[N+](=O)[O-])CC1 [A-1211212] | 35.4826 | 44.6988 | 55.1244 | 87.836 | 16.3832 | 159.244 | 32.5112 | 71.0169 | 8.693 | 108.861 | 18.6642 | 86.311
CCOc1cc2ncc(C#N)c(Nc3ccc(OCc4cccc(F)c4)c(Cl)c3)c2cc1NC(=O)/C=C/CN(C)C [HKI-357] | 25.3344 | 46.9424 | 1.402 | 33.5455 | 50.2885 | 47.1207 | 7.299 | 36.419 | 16.8896 | 39.6819 | 6.232 | 45.0211
COc1cc(N(C)c2ccnc3ccc(C(F)(F)F)cc23)cc(OC)c1OC | 114.205 | 95.5273 | 120.439 | 84.9016 | 76.7382 | 110.267 | 123.073 | 118.477 | 161.309 | 161.036 | 102.201 | 116.943
COc1cc(-c2cn([C@H]3CCc4c(F)cccc4N(CC(F)(F)F)C3=O)nn2)ccc1-n1cnc(C)c1 | 75.4426 | 112.422 | 84.8132 | 97.4006 | 119.382 | 109.286 | 102.589 | 90.6954 | 117.399 | 118.336 | 87.9333 | 111.054
CC(C)(C)OC(=O)N1CCCC1CNC1CCC(c2cc(F)ccc2F)(S(=O)(=O)c2ccc(Cl)cc2)CC1 (stereo unspecified) [GSI-NC] | 82.5384 | 107.99 | 97.33 | 95.7632 | 93.8933 | 100.789 | 108.621 | 95.0953 | 109.794 | 188.651 | 83.1857 | 79.5795
O=C(c1ccc(C(=O)N2CCC(N3CCCC3)CC2)c(Nc2ccccc2)c1)N1CCC(N2CCCC2)CC1 | 102.524 | 98.4049 | 104.115 | 98.5481 | 128.422 | 96.2949 | 123.486 | 97.1366 | 108.091 | 96.0319 | 93.2966 | 98.6037
O=C(Nc1cccnn1)N1CC(C/C=C/c2cncc(Oc3ccc(C(F)(F)F)cn3)n2)C1 | 84.7499 | 109.288 | 99.5215 | 99.7577 | 97.9448 | 112.944 | 119.523 | 106.69 | 131.321 | 196.307 | 116.585 | 92.4101
C=CC(=O)Nc1cccc(C(=O)Nc2ccc(Nc3cc(-c4[nH]c(SC)nc4C)ccn3)cc2)c1 | 92.8618 | 104.149 | 127.049 | 88.1867 | 175.75 | 71.728 | 133.783 | 92.5554 | 87.3077 | 89.5907 | 92.9694 | 99.3546
C[C@@]1(Cc2ccc(C#N)cc2)C(=O)N(c2cc(Cl)cc(Cl)c2)c2ncc(C(=O)NC3(c4nc(C5CCC5)no4)CC3)n21 [BI 9446] | 88.6006 | 103.948 | 113.423 | 106.796 | 72.3076 | 136.535 | 95.8483 | 102.524 | 85.7019 | 100.079 | 74.4511 | 102.688
C[C@@H](c1cccc(C#N)c1)n1cc(Cl)cc(C(N)=O)c1=N.Cl | 96.0836 | 104.787 | 81.7502 | 103.626 | 64.263 | 72.4154 | 105.334 | 111.16 | 92.5611 | 127.503 | 97.2998 | 98.9566
CC(C)(O)CNc1ncc(-c2ccnc(Nc3ccnc(Cl)c3)n2)c(CC2CC2)n1 | 100.5 | 183.934 | 107.577 | 192.643 | 67.7034 | 172.835 | 40.8339 | 186.893 | 30.6205 | 168.017 | 58.1247 | 187.59
CN(C)CCOc1ccc(-c2nc(-c3ccncc3)c(-c3ccc4c(c3)CC/C4=N\O)[nH]2)cc1 [SB590885] | 125.618 | 131.894 | 138.834 | 91.3736 | 155.192 | 68.1541 | 66.5679 | 111.294 | 79.2379 | 96.48 | 138.873 | 135.694
CCc1cc2cc(NS(=O)(=O)c3ccc(C#N)cc3)ccc2n(CC)c1=O | 89.9895 | 94.6782 | 98.1459 | 101.615 | 195.321 | 99.0217 | 112.066 | 92.4545 | 88.2132 | 102.933 | 126.115 | 101.813
CC(=O)Nc1c(C(C)=O)c(=O)n(C)c2nc(-c3ccc(Cl)cc3Cl)c(-c3ccc(Cl)cc3)cc12 [NAPHTHYRIDINONE] | 70.6421 | 119.606 | 87.1663 | 99.5027 | 105.882 | 98.6055 | 84.0394 | 82.777 | 144.905 | 170.157 | 100.862 | 101.001
O=C(NC[C@H](O)CN1CCc2ccccc2C1)c1ccnc(NC2CCC2)c1 | 29.3409 | 134.373 | 40.919 | 88.6314 | 42.8317 | 143.569 | 53.6752 | 63.4646 | 33.1368 | 110.399 | 67.3977 | 84.1228
